Key:
Cbl-b [1] = biological target: T1, Cbl-b (Homo sapiens, UniProt Q13191); assay: Cbl-b activity assay (Cbl-b inhibition assay), TR-FRET of Cbl-b interaction with UbcH5B-Ub; format: biochemical; conditions: assay buffer with 100 mM NaCl, 60 nM Src kinase; read-out: Cbl-b activity IC50
Procedure, shortened: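 UbcH5B (C85K) conjugated to N-terminally Bodipy-Fluorescein-labeled ubiquitin served as the fluorescent partner. After compound preincubation, Src kinase (60 nM) with 1 mM ATP and 5 mM MgCl2 (final) was added for 1.5 h, followed by a further 1 h incubation. Some values were obtained with 50 mM NaCl and 30 nM Src.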

T-cell [2] = assay: IL-2 secretion from T-cells stimulated with anti-CD3 antibody alone (Biological Example 2); format: cell-based, human; conditions: Homo sapiens, T-cell; 1 μM Cbl-b inhibitor; fold change over baseline (anti-CD3/anti-CD28 stimulated T-cells without inhibitor); read-out: IL-2 secretion Anti-CD3 stimulation
T-cell [3] = assay: IL-2 secretion from T-cells co-stimulated with anti-CD3 and anti-CD28 antibody (Biological Example 2); format: cell-based, human; conditions: Homo sapiens, T-cell, fold change over baseline (anti-CD3/anti-CD28 stimulated T-cells without inhibitor), read-out: IL-2 secretion Anti-CD3/Anti-CD28 stimulation; for fold induction at 0.3 µM: 0.3 μM Cbl-b inhibitor; for fold induction at 1 µM: 1 μM Cbl-b inhibitor
Procedure, shortened: (§1)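 T-cells were stimulated with anti-CD3 antibody alone or with anti-CD28 antibody, in the presence or absence of Cbl-b inhibitor. IL-2 secretion or CD25 surface staining was measured, and values expressed as fold over the uninhibited baseline […].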

Cbl-b [4] = biological target: T1, Cbl-b; assay: Cbl-b inhibition assay (Cbl-b activity assay, FRET, Biological Example 1; 100 mM NaCl, 60 nM Src kinase); format: biochemical; conditions: upper bound stated in text lists; read-out: IC50 values in the Cbl-b inhibition assay of Biological Example 1
Procedure, shortened: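 Here, the E2 UbcH5B, irreversibly linked to Bodipy-fluorescein ubiquitin, binds Cbl-b once Src kinase phosphorylates it; Cbl-b carries an N-terminal biotinylated Avi-tag captured by streptavidin-terbium. An absent FRET signal indicates inhibition.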

T-cell [5] = assay: CD25 cell surface staining on T-cells co-stimulated with anti-CD3 and anti-CD28 antibody (Biological Example 2); format: cell-based, human; conditions: Homo sapiens, T-cell, fold change over baseline (anti-CD3/anti-CD28 stimulated T-cells without inhibitor), read-out: CD25 staining Anti-CD3/Anti-CD28 stimulation; for fold induction at 0.3 µM: 0.3 μM Cbl-b inhibitor; for fold induction at 1 µM: 1 μM Cbl-b inhibitor
Procedure, shortened: as §1

T1 sequence (Q13191 36-427): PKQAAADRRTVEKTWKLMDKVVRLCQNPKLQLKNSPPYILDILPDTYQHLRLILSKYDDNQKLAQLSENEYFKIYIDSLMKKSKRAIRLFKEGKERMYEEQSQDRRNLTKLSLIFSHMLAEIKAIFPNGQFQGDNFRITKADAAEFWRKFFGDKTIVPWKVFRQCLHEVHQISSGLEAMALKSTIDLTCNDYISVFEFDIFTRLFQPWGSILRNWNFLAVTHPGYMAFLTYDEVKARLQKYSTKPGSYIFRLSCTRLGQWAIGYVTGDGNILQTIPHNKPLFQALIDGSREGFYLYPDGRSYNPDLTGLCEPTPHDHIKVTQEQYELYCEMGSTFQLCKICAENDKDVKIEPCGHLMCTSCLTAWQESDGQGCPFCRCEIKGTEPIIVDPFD

SMILES | IC50 (Cbl-b [1]) [nM] | fold induction at 1 µM (T-cell [2]) | fold induction at 0.3 µM (T-cell [3]) | fold induction at 1 µM (T-cell [3]) | IC50 (Cbl-b [4]) [nM] | fold induction at 0.3 µM (T-cell [5]) | fold induction at 1 µM (T-cell [5])
C[C@@H]1CN(Cc2cc3c(c(C(F)(F)F)c2)CN(c2cccc(C4(Cc5nncn5C)COC4)c2)C3=O)CCO1 [Example 663b, (R)-2-(3-(3-((4-methyl-4H-1,2,4-triazol-3-yl)methyl)oxetan-3-yl)phenyl)-6-((2-methylmorpholino)methyl)-4-(trifluoromethyl)isoindolin-1-one] | < 100 | > 0.201 | > 7.5 | > 7.5 | ≤ 100 | 1.31 to 1.5 | 1.31 to 1.5
Cn1cnnc1[C@@H](F)C1(c2cccc(N3Cc4c(cc(CN5CCC(F)CC5)cc4C(F)(F)F)C3=O)c2)COC1 [Example 670a, (S)-2-(3-(3-(fluoro(4-methyl-4H-1,2,4-triazol-3-yl)methyl)oxetan-3-yl)phenyl)-6-((4-fluoropiperidin-1-yl)methyl)-4-(trifluoromethyl)isoindolin-1-one] | < 100 | > 0.201 | 5 to 7.5 | > 7.5 | ≤ 100 | 1.51 to 1.75 | 1.51 to 1.75
Cn1cnnc1[C@H](F)C1(c2cccc(N3Cc4c(cc(CN5CCC(F)CC5)cc4C(F)(F)F)C3=O)c2)COC1 [Example 670b, (R)-2-(3-(3-(fluoro(4-methyl-4H-1,2,4-triazol-3-yl)methyl)oxetan-3-yl)phenyl)-6-((4-fluoropiperidin-1-yl)methyl)-4-(trifluoromethyl)isoindolin-1-one] | < 100 | > 0.201 | > 7.5 | > 7.5 | ≤ 100 | > 1.76 | > 1.76

Reference: patent US20220324835A1 (Nurix Therapeutics, Inc., priority 2018, published 2022)
